Test results taken from ChEMBL document CHEMBL1201862, “PubChem BioAssay data set” (2004).
The source made the active and inactive calls.

Assays:
[1] = target: T1, Carboxy-terminal domain RNA polymerase II polypeptide A small phosphatase 1 (Homo sapiens, UniProt Q9GZU7); test: CTDSP1 inhibitors, concentration-response, biochemical, absorbance readout, ultra-high-throughput screen actives (AID 540297); format: functional
T1 sequence (Q9GZU7 whole entry): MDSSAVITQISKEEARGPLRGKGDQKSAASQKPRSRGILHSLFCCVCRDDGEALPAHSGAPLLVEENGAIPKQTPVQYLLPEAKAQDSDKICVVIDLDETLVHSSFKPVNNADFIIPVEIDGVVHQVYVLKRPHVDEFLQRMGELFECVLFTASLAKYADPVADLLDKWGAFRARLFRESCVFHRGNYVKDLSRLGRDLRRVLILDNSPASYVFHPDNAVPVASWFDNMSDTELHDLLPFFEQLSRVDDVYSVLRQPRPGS

[2] = target: Heat shock protein HSP 90-alpha (Homo sapiens, UniProt P07900); format: functional, organism-based
Cytochrome P450 3A4 = Cytochrome P450 3A4 (Homo sapiens, UniProt P08684);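 note: CYP3A4 tested as one member of a cytochrome P450 panel screen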
[3] = target: T2, Short transient receptor potential channel 4 (Mus musculus, UniProt Q9QUQ5); test: calcium entry via TRPC4 opening agents – cell-based, HEK293 TRPC4/mu-opioid, Fluo-4 calcium, dose response (AID 434937); format: functional
T2 sequence (Q9QUQ5 whole entry): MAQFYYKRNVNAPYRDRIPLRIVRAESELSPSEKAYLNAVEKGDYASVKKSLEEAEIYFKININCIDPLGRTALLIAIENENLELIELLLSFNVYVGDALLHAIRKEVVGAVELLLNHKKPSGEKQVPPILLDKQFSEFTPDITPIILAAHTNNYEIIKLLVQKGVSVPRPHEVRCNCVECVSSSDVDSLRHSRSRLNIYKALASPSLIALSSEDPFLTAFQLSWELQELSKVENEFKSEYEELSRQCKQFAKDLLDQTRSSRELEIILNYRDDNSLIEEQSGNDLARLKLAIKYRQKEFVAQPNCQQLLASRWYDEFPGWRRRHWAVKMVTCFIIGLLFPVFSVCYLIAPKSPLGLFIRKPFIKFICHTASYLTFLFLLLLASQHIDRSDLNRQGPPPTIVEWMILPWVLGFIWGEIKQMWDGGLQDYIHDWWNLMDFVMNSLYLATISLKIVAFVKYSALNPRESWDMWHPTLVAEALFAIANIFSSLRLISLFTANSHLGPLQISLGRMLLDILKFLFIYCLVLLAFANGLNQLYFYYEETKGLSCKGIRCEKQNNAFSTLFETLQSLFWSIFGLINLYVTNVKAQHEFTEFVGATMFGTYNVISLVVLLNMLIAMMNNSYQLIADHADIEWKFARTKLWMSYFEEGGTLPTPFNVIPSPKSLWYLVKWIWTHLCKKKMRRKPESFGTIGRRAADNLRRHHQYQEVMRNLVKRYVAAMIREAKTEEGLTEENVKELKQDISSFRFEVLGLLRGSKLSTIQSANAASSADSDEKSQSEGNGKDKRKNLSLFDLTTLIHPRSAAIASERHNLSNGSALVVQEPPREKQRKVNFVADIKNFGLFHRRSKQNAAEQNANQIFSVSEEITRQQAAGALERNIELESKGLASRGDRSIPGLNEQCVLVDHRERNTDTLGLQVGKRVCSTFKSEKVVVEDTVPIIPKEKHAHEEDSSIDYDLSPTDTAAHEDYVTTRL

HEK293 = test: EBV LMP1 TES2 canonical NF-kB signalling blockers – cell-based, HEK293, luciferase, cherry-pick, dose response (AID 588343); format: functional; settings: Homo sapiens
Cytochrome P450 1A2 = target: T3, Cytochrome P450 1A2 (Homo sapiens, UniProt P05177);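 note: PubChem cytochrome P450 panel assay, CYP1A2 panel member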
T3 sequence (P05177 whole entry): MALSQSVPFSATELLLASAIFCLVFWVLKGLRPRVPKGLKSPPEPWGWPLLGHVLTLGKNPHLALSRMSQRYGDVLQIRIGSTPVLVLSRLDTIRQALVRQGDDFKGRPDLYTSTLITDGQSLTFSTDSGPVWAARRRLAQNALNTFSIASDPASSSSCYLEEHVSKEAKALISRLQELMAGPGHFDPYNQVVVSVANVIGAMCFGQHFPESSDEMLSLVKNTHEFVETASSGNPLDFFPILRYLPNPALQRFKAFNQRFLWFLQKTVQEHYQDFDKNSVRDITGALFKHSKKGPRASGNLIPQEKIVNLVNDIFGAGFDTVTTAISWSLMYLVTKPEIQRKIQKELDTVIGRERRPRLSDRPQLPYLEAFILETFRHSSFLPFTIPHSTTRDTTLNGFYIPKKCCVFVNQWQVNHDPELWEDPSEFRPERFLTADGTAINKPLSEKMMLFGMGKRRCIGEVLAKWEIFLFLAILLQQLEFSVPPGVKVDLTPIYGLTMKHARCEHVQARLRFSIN

Nonstructural protein 1 = Nonstructural protein 1 (Influenza A virus, UniProt Q194T2); format: functional, Influenza A virus (A/California/07/2009(H1N1))
[4] = NIH-3T3 fibroblast cytotoxicity, dose response, cytotoxicity control, cell-based, fluorescence, Alamar Blue, secondary assay (AID 2327); format: functional;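 note: NIH-3T3 mouse fibroblasts cultured with fluconazole at 8 µg/mL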
[5] = fluconazole-exposed Candida albicans growth modulators – fluorescence, retest, confirmation (AID 2467); format: functional, cell-based
[6] = target: T4, Microphthalmia-associated transcription factor (Homo sapiens, UniProt O75030); test: reducers of TRPM1 reporter luminescence, concentration series – cell-based, SK-MEL-5, cherry-picked, set 3, MITF inhibitor project, dose response (AID 493073); format: functional;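 note: SK-MEL-5 melanoma cells with luciferase driven by the MITF target TRPM1 promoter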
T4 sequence (O75030 whole entry): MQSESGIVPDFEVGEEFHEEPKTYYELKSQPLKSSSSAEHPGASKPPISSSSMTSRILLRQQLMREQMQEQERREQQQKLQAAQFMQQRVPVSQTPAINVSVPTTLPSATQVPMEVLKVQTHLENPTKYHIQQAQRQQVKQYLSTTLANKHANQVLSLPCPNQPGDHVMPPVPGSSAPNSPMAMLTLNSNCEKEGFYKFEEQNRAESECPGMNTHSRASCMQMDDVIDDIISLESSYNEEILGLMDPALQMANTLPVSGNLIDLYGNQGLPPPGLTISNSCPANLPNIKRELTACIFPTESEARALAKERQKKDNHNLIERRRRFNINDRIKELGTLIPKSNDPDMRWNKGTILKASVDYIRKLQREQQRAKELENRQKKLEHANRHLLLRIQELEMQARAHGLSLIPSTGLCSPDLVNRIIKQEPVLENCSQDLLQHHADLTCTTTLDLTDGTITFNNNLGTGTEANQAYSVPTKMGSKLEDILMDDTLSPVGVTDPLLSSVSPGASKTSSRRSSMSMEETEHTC

[7] = target: T5, Heat shock factor protein 1 (Mus musculus, UniProt P38532); test: decrease of HSF1-responsive luciferase luminescence – cell-based, NIH3T3, dose retest, confirmation (AID 2382); format: functional;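 note: NIH3T3 fibroblasts with HSF1-driven luciferase reporter stressed by proteasome inhibitor MG132; luminescence from HSF1-driven luciferase expression after 8 hours of MG132 stress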
T5 sequence (P38532 whole entry): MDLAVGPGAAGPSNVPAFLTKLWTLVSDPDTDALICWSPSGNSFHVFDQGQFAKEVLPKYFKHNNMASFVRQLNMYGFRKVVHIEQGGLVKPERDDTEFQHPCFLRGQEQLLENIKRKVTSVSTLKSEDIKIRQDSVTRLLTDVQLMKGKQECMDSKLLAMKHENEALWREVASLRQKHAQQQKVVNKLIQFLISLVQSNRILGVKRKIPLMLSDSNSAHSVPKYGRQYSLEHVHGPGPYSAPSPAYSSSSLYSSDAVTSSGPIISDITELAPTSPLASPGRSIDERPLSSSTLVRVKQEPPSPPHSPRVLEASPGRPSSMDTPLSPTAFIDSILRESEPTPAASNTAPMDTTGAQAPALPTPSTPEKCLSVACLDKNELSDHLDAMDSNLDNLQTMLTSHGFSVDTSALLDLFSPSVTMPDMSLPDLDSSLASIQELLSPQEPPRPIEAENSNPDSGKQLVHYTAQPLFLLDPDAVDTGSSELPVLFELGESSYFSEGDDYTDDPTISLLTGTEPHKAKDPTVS

[8] = target: Dual specificity tyrosine-phosphorylation-regulated kinase 1A (Rattus norvegicus, UniProt Q63470); format: biochemical, Homo sapiens
[9] = Trypanosoma cruzi growth suppression in host cells – NIH3T3 host cells, beta-gal luminescence, confirmation (AID 2044); format: functional, cell-based;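 note: intracellular parasites grown in NIH/3T3 mouse fibroblasts as host cells; luminescent beta-galactosidase reporter signal from transgenic T. cruzi replicating inside host cells; inhibitors lower the luminescence signal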
[10] = NIH3T3 cell viability loss – ATP luminescence, mouse fibroblasts, counter-screen, dose response (AID 2010); format: functional, cell-based;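 note: cells exposed to compound for about 90 hours before reading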
[11] = target: T6, High affinity choline transporter 1 (Homo sapiens, UniProt Q9GZV3); test: human choline transporter blockers, potency – cell-based, 5-point CRC, membrane potential dye, dose response (AID 504840); format: functional
T6 sequence (Q9GZV3 whole entry): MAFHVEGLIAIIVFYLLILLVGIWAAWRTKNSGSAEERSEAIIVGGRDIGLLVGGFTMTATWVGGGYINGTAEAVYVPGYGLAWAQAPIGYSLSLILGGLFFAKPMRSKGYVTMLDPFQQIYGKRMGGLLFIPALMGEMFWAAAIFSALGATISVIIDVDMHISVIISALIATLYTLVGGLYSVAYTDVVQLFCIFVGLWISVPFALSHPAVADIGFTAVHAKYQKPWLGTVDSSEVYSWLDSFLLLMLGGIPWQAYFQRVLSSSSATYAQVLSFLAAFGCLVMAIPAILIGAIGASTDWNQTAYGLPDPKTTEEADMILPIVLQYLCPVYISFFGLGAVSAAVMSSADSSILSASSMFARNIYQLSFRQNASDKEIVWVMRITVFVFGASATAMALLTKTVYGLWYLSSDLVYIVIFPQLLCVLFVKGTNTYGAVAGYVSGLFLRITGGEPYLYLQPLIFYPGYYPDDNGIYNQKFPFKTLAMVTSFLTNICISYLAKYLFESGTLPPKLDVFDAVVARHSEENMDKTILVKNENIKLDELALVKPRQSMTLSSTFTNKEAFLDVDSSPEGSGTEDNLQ

[12] = luciferase reporter signal suppression in cells – H4 neuroglioma cells, luminescence, dose response (AID 1990); format: functional, cell-based
[13] = Luminescence Cell-Based Dose Response HTS to Identify Inhibitors of 5'UTR Stem-Loop Driven Prion Protein mRNA Translation in H4 Neuroglioblastoma Cells. [Related pubchem assays: 1827 (Project Summary), 1813 (Primary HTS)]; format: functional
[14] = alpha-synuclein stem-loop luciferase translation blockers – H4 neuroglioma cells, luminescence, confirmation (AID 1988); format: functional, cell-based
[15] = Vero E6 cell cytotoxicity, dose response, cytotoxicity control for non-replicating M. tuberculosis project, secondary assay (AID 492998); format: functional, VeroE6; settings: Vero C1008
cells = format: functional
[16] = A cytotoxicity screen of small molecule inhibitors of the PhoP region in Salmonella typhi identified in the primary screen. [Related pubchem assays: 1850, 1864, 1985 ]; format: functional
[17] = target: T2, Short transient receptor potential channel 4; test: block of DAMGO-driven TRPC4 calcium entry – cell-based, HEK293 TRPC4/mu-opioid, Fluo-4 calcium, dose response (AID 434942); format: functional;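 note: potency of inhibitors blocking the TRPC4 calcium response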

Cytochrome P450 3A4, sequence (P08684 whole entry): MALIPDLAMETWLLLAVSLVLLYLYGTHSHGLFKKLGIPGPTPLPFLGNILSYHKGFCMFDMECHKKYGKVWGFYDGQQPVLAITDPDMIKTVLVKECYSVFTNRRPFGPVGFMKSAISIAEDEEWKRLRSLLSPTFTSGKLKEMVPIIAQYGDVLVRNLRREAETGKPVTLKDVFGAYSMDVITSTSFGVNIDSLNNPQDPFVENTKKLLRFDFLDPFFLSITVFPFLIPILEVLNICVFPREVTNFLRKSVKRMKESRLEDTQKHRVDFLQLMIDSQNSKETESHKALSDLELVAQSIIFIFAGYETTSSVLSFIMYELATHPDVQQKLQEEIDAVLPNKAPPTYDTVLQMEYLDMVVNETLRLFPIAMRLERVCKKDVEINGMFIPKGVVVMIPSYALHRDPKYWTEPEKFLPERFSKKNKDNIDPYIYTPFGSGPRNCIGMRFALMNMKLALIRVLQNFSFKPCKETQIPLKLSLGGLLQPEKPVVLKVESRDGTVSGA
Nonstructural protein 1, sequence (Q194T2 whole entry): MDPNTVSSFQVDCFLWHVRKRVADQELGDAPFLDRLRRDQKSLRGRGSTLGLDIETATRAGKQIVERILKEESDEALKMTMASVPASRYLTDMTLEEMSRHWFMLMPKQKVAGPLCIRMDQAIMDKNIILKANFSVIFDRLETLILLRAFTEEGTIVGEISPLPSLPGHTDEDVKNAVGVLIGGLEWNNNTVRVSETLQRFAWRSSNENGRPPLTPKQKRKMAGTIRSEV

## O=C(CSc1nccc(O)n1)N1N=C2/C(=C/c3ccco3)CCCC2C1c1ccco1 (stereo not drawn)
[1]
  IC50: 13 µM (active)

## O=C1C2C3C=CC(C3)C2C(=O)N1CN(Cc1ccccc1)CN1C(=O)C2C3C=CC(C3)C2C1=O (stereo not drawn)
[2]
  AC50: 17.4 µM (active)

## CSc1nc2cc(S(=O)(=O)N3CCCCC3)ccc2s1
Cytochrome P450 3A4
  AC50: inconclusive

## COc1ccc(CCN(C)C(=O)C2CCCN(C3CCN(Cc4ccccc4)CC3)C2)cc1OC (stereo not drawn)
[3]
  EC50: 1.19 µM (active)

## CN(C)CC1Oc2ccccc2OC1(O)c1ccccc1 (stereo not drawn)
[2]
  AC50: 2.52 µM (active)

## COc1ccc(S(=O)(=O)NCCc2csc(-c3cccnc3)n2)cc1
HEK293
  AC50: 144 µM (active)

## CC(=O)OCC(=O)[C@@]1(OC(C)=O)[C@H](C)C[C@H]2[C@@H]3C[C@H](F)C4=CC(=O)C=C[C@@]4(C)[C@]3(F)[C@H](O)C[C@@]21C
Cytochrome P450 1A2
  AC50: 12.6 µM (inconclusive)
Cytochrome P450 3A4
  AC50: inconclusive

## CCOC(=O)C1=C(C)N=C2c3ccccc3C(=O)C2C1c1ccc(C)cc1 (stereo not drawn)
Nonstructural protein 1
  IC50: > 100 µM (active)
Cytochrome P450 3A4
  AC50: inconclusive

## Nc1ncnc(Sc2ncccn2)c1[N+](=O)[O-]
[4]
  EC50: 7.47 µM (inconclusive)
[5]
  EC50: 1 µM (active)
[6]
  AC50: 11.7 µM (active)

## N#Cc1ccccc1S(=O)(=O)N1CCN(C(=O)C2COc3ccccc3O2)CC1 (stereo not drawn)
[1]
  IC50: 3.54 µM (active)

## O=C(c1cc(C(F)(F)F)cc(C(F)(F)F)c1)N1CCC2(CC1)CCN(c1ccncc1)CC2
Cytochrome P450 1A2
  AC50: 25.1 µM (inconclusive)
Cytochrome P450 3A4
  AC50: inconclusive

## CC(C)(C)OC(=O)N1Cc2ccccc2C[C@H]1C(=O)NCC(=O)Nc1ccc2c(c1)OCCO2
[7]
  EC50: 0.755 µM (active)
HEK293
  AC50: 1.4 µM (active)

## O=C(O)/C=C/c1cccc(NC(=O)Nc2ccc([N+](=O)[O-])cc2)c1
[8]
  AC50: 5.42 µM (active)

## COc1cccc(CN2CCNC(=O)C2CC(=O)N(C)CCc2ccccn2)c1OC (stereo not drawn)
[3]
  EC50: 6.68 µM (active)

## Cc1ccc(C(=O)OCC(=O)c2ccc(CC(=O)N3CCOCC3)s2)c(C)c1
[1]
  IC50: 4.73 µM (active)

## CCc1ccccc1NC(=O)COc1ccc2oc(-c3ccc(OC)cc3)cc(=O)c2c1
[1]
  IC50: 8.65 µM (active)

## COc1ccc(CCN2C(=O)C=CC2=O)cc1OC
[2]
  AC50: 3.1 µM (active)

## CCCCCCCCC/C(=N\O)c1ccccn1
[9]
  EC50: 1.97 µM (active)
[10]
  EC50: > 30 µM (not active)
[2]
  AC50: 4.09 µM (active)

## CC(/C=N/NC(=O)c1cc(-c2ccncc2)nc2ccccc12)=C\c1ccco1
[6]
  AC50: 2.4 µM (active)
[11]
  IC50: 9.98 µM (active)

## C(=N\Nc1[nH]cnc2ncnc1-2)/c1cccs1
[8]
  AC50: 5.83 µM (active)

## O=C(N/N=C1\CCCc2c1[nH]c1ccc(Cl)cc21)c1ccncc1
[12]
  EC50: 11.1 µM (active)
[13]
  EC50: 25.8 µM (active)
[14]
  EC50: 10.3 µM (active)
[15]
  CC50: 9.43 µM (active)
cells
  IC50: 0.6 µM (active)

## CCc1nccc2c1[nH]c1ccccc12
[16]
  EC50: > 50 µM (active)
[17]
  EC50: 2.99 µM (active)
[8]
  AC50: 5.67 µM (active)

## CC(C)OC(=O)C(C)(C)Oc1ccc(C(=O)c2ccc(Cl)cc2)cc1 [FENOFIBRATE]
Cytochrome P450 3A4
  AC50: inconclusive
